Laboratory results as given in PMC10739865, “The Mycobacterium tuberculosis methyltransferase Rv2067c manipulates host epigenetic programming to promote its own survival” (Nature Communications, 2023).

What was measured:
[1] = target: T1, Rv2067c (Mycobacterium tuberculosis, UniProt P9WLL9)
[2] = target: T1, Rv2067c; remark: listed apart in the source

T1 sequence (P9WLL9 whole entry): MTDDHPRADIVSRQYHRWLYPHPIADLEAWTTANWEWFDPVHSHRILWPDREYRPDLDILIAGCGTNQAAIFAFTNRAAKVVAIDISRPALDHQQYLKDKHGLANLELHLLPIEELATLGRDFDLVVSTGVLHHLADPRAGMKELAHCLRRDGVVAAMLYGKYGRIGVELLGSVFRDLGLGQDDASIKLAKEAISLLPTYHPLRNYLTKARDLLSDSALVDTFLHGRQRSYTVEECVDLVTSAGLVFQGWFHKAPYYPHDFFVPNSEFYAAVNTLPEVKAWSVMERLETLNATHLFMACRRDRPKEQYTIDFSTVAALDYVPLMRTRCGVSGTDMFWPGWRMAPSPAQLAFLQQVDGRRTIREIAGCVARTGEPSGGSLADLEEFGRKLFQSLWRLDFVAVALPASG

Compound	radiometric methyltransferase assay (scintillation counting, autoradiography) [1]	X-ray crystallography, 2.40 Å [2]
C[S+](CC[C@H](N)C(=O)O)C[C@H]1O[C@@H](n2cnc3c(N)ncnc32)[C@H](O)[C@@H]1O (stereo partly drawn) [S-Adenosyl-L-methionine]	Rv2067c as MTase, and tritiated SAM as a methyl donor, methylation of histones was detected	–
Nc1ncnc2c1ncn2[C@@H]1O[C@H](CSCC[C@H](N)C(=O)O)[C@@H](O)[C@H]1O [S-adenosyl-L-homocysteine]	–	The coordinates for Rv2067c-SAH structure have been deposited in the Protein Data Bank
